Measurements as given in US5183821A, “Method for treating leukemias using N-(2-dimethylaminoethyl)-3-amino-1,8-naphthalimide for treating leukemias and solid tumors” (priority 1991, dated 1993).
Converted amounts (≈) assume the structure as drawn. “Also recorded” adds a separate entry of the source.

How the values were obtained:
B16 Melanocarcinoma [1] = experiment: Experiment 19: B16 i.p., acid diluted with saline, female; type: in vivo, Mouse B6 D2 F1
From the text: (§1) Tumor: B16 Melanocarcinoma
(§2) Inoculum Site: Intraperitoneal
(§3) Tissue: Homogenate (or brei), tumor
(§4) Vehicle: Acid diluted with saline
Treatment schedule: (relative to tumor inoculation day): daily on days 1-9
(§5) Day of evaluation (relative to tumor inoculation day): 60
(§6) Parameter: Median survival time (MST) in days
(§7) NCI minimal activity criteria: Percent T/C≥125
(§8) Percent T/C: Ratio of test (T) evaluation to control (C) evaluation expressed as a percentage

B16 Melanocarcinoma [2] = experiment: NCI screen, B16 Melanocarcinoma, intraperitoneal (summary); type: in vivo, Mouse; details: for Antitumor activity in words: B16
From the text: (§9) The activity of the compound has been evaluated by experiments carried out under the auspices of the Division of Cancer Treatment, National Cancer Institute, employing techniques considered to be reliable indicators of chemotherapeutic utility in the treatment of forms of cancer in human patients. The details of the methodology employed in the reported experiments may be determined with reference to established NCI screening methods.
(§10) In the experiments conducted by the NCI, evaluation of activity is made on the basis of appropriate parameters, such as median survival time (MST) or change in average tumor diameter (CATD)in ocular micrometer units (OMU).

B16 Melanocarcinoma [3] = experiment: Experiment 18: B16 i.p., saline with Tween-80, male; type: in vivo, Mouse B6 C3 F1
From the text: as §1, §2, §3
(§11) Vehicle: Saline with Tween-80
(§12) Treatment schedule (relative to tumor inoculation day): daily on days 1-9
as §5, §6, §7, §8

L-1210 Lymphoid leukemia [4] = experiment: Experiment 6: L-1210 i.p., 10^4 cells, saline with Tween-80, male; type: in vivo, Mouse CD2 F1 (CDF1)
From the text: (§13) Host: Mouse CD2 F1 (CDF1)
(§14) Tumor: L-1210 Lymphoid leukemia
as §2, §11, §12
(§15) Day of evaluation (relative to tumor inoculation day): 30
as §6, §7, §8

L-1210 Lymphoid leukemia [5] = experiment: Experiment 5: L-1210 i.p., 10^5 cells, acid diluted with saline, female; type: in vivo, Mouse CD2 F1 (CDF1)
From the text: as §13, §14, §2, §4, §12, §15, §6, §7, §8

B16 Melanocarcinoma [6] = experiment: Experiment 20: B16 i.p., acid diluted with saline, female; type: in vivo, Mouse B6 C3 F1
From the text: as §1, §2, §3, §4, §12, §5, §6, §7, §8

CX-1 colon xenograft = experiment: NCI screen, CX-1 colon xenograft, renal capsule (summary); type: in vivo, human tumor xenograft in athymic mice; details: for Antitumor activity in words: CX-1 colon xenograft
From the text: as §9, §10

Colon 38 = experiment: Experiment 12 (first): Colon 38 s.c., saline with Tween-80, male; type: in vivo, Mouse B6 D2 F1 (BDF1)
From the text: Host: Mouse B6 D2 F1 (BDF1)
Inoculum Site: Subcutaneous
as §11
Treatment schedule (relative to tumor inoculation day) days 2 and 9
Day of evaluation (relative to tumor inoculation day): 20
Parameter: Median tumor weight (MTW) estimated from tumor diameter
NCI minimal activity criteria: Percent T/C≤42
as §8

physchem = type: physicochemical
Protocol: While the compound was generally tested as a suspension in Tween-80, in one L1210 experiment it was tested as a solution in 0.1 N HCL diluted with saline. The level of activity (ILS=117%) was maintained. The solubilities of the compound in 0.01 N and 0.1 HCl are approximately 3 and 30 mg/ml, respectively.
Formulation: 100 mg drug and 1 N HCl lyophilized yield the salt. The lyophilized cake dissolves in 2 ml sterile water to yield a 50 mg/ml red solution at pH 5.0-7.0.

LX-1 lung xenograft = experiment: NCI screen, LX-1 lung xenograft, renal capsule (summary); type: in vivo, human tumor xenograft in athymic mice; details: for Antitumor activity in words: LX-1 lung xenograft
From the text: as §9, §10

[7] = change in average tumor diameter, 4 tests, full wrapped cell: Activity not confirmed

Compound: CN(C)CCN1C(=O)c2cccc3cc(N)cc(c23)C1=O [Example 9, 1H-Benz[de]isoquinoline-1,3(2H)-dione, 5-amino-2-[2-(dimethylamino)ethyl]]
- Median survival time (MST) (B16 Melanocarcinoma [1]; 1.00 mg/kg i.p.): 19.8 days
- Percent T/C (B16 Melanocarcinoma [1]; 1.00 mg/kg i.p.): 99%
- Median survival time (MST) (B16 Melanocarcinoma [1]; 2.00 mg/kg i.p.): 21.9 days
- Percent T/C (B16 Melanocarcinoma [1]; 2.00 mg/kg i.p.): 110%
- Median survival time (MST) (B16 Melanocarcinoma [1]; 4.00 mg/kg i.p.): 22.8 days
- Percent T/C (B16 Melanocarcinoma [1]; 4.00 mg/kg i.p.): 114%
- Median survival time (MST) (B16 Melanocarcinoma [1]; 8.00 mg/kg i.p.): 24.3 days
- Percent T/C (B16 Melanocarcinoma [1]; 8.00 mg/kg i.p.): 122%
- Median survival time (MST) (B16 Melanocarcinoma [1]; 16.00 mg/kg i.p.): 31.0 days
- Percent T/C (B16 Melanocarcinoma [1]; 16.00 mg/kg i.p.): 155%
- Median survival time (MST) (B16 Melanocarcinoma [1]; 32.00 mg/kg i.p.): 6.8 days
- increased life spans (B16 Melanocarcinoma [2]; 16 mg/kg i.p. days 1-9, three experiments): 37-55%
- Antitumor activity in words (B16 Melanocarcinoma [2]; listed as BIDA): Activity was seen
- Antitumor activity in words (B16 Melanocarcinoma [2]; listed as the compound): at least a reproducible minimal activity; also recorded: active
- Table II evaluation (B16 Melanocarcinoma [2]; median survival time, 28 tests, full wrapped cell: Reproducible minimal activity): Reproducible minimal
- Median survival time (MST) (B16 Melanocarcinoma [3]; 4.00 mg/kg i.p.): 22.0 days
- Percent T/C (B16 Melanocarcinoma [3]; 4.00 mg/kg i.p.): 113%
- Median survival time (MST) (B16 Melanocarcinoma [3]; 8.00 mg/kg i.p.): 23.2 days
- Percent T/C (B16 Melanocarcinoma [3]; 8.00 mg/kg i.p.): 120%
- Median survival time (MST) (B16 Melanocarcinoma [3]; 16.00 mg/kg i.p.): 27.0 days
- Percent T/C (B16 Melanocarcinoma [3]; 16.00 mg/kg i.p.): 139%
- Median survival time (MST) (B16 Melanocarcinoma [3]; 32.00 mg/kg i.p.): 6.3 days
- Median survival time (MST) (L-1210 Lymphoid leukemia [4]; 2.00 mg/kg i.p.): 9.7 days
- Percent T/C (L-1210 Lymphoid leukemia [4]; 2.00 mg/kg i.p.): 105%
- Median survival time (MST) (L-1210 Lymphoid leukemia [4]; 4.00 mg/kg i.p.): 10.7 days
- Percent T/C (L-1210 Lymphoid leukemia [4]; 4.00 mg/kg i.p.): 116%
- Median survival time (MST) (L-1210 Lymphoid leukemia [4]; 8.00 mg/kg i.p.): 12.0 days
- Percent T/C (L-1210 Lymphoid leukemia [4]; 8.00 mg/kg i.p.): 130%
- Median survival time (MST) (L-1210 Lymphoid leukemia [4]; 16.00 mg/kg i.p.): 19.0 days
- Percent T/C (L-1210 Lymphoid leukemia [4]; 16.00 mg/kg i.p.): 200%
- Median survival time (MST) (L-1210 Lymphoid leukemia [4]; 32.00 mg/kg i.p.): 8.3 days
- Percent T/C (L-1210 Lymphoid leukemia [4]; 32.00 mg/kg i.p.): 90%
- Median survival time (MST) (L-1210 Lymphoid leukemia [5]; 5.00 mg/kg i.p.): 11.0 days
- Percent T/C (L-1210 Lymphoid leukemia [5]; 5.00 mg/kg i.p.): 113%
- Median survival time (MST) (L-1210 Lymphoid leukemia [5]; 7.00 mg/kg i.p.): 11.1 days
- Percent T/C (L-1210 Lymphoid leukemia [5]; 7.00 mg/kg i.p.): 114%
- Median survival time (MST) (L-1210 Lymphoid leukemia [5]; 10.00 mg/kg i.p.): 11.4 days
- Percent T/C (L-1210 Lymphoid leukemia [5]; 10.00 mg/kg i.p.): 117%
- Median survival time (MST) (L-1210 Lymphoid leukemia [5]; 16.00 mg/kg i.p.): 17.0 days
- Percent T/C (L-1210 Lymphoid leukemia [5]; 16.00 mg/kg i.p.): 175%
- Median survival time (MST) (L-1210 Lymphoid leukemia [5]; 24.00 mg/kg i.p.): 13.3 days
- Percent T/C (L-1210 Lymphoid leukemia [5]; 24.00 mg/kg i.p.): 137%
- Median survival time (MST) (B16 Melanocarcinoma [6]; 0.00 mg/kg [sic] i.p.): 18.3 days
- Percent T/C (B16 Melanocarcinoma [6]; 0.00 mg/kg [sic] i.p.): 97%
- Median survival time (MST) (B16 Melanocarcinoma [6]; 2.00 mg/kg i.p.): 18.3 days
- Percent T/C (B16 Melanocarcinoma [6]; 2.00 mg/kg i.p.): 97%
- Median survival time (MST) (B16 Melanocarcinoma [6]; 4.00 mg/kg i.p.): 20.0 days
- Percent T/C (B16 Melanocarcinoma [6]; 4.00 mg/kg i.p.): 106%
- Median survival time (MST) (B16 Melanocarcinoma [6]; 8.00 mg/kg i.p.): 20.9 days
- Percent T/C (B16 Melanocarcinoma [6]; 8.00 mg/kg i.p.): 111%
- Median survival time (MST) (B16 Melanocarcinoma [6]; 16.00 mg/kg i.p.): 20.8 days
- Percent T/C (B16 Melanocarcinoma [6]; 16.00 mg/kg i.p.): 110%
- Median survival time (MST) (B16 Melanocarcinoma [6]; 32.00 mg/kg i.p.): 6.7 days
- Antitumor activity in words (CX-1 colon xenograft; listed as BIDA): No activity was seen
- Antitumor activity in words (CX-1 colon xenograft; listed as the compound): not active
- Table II evaluation (CX-1 colon xenograft; [7]): Activity not
- Median tumor weight (MTW) (Colon 38; 2.00 mg/kg i.p.): 685
- Percent T/C (Colon 38; 2.00 mg/kg i.p.): 72%
- Median tumor weight (MTW) (Colon 38; 4.00 mg/kg i.p.): 775
- Percent T/C (Colon 38; 4.00 mg/kg i.p.): 81%
- Median tumor weight (MTW) (Colon 38; 8.00 mg/kg i.p.): 861
- Percent T/C (Colon 38; 8.00 mg/kg i.p.): 90%
- Median tumor weight (MTW) (Colon 38; 16.00 mg/kg i.p.): 733
- Percent T/C (Colon 38; 16.00 mg/kg i.p.): 77%
- Median tumor weight (MTW) (Colon 38; 32.00 mg/kg i.p.): 270
- Percent T/C (Colon 38; 32.00 mg/kg i.p.): 28%
- Median tumor weight (MTW) (Colon 38; 64.00 mg/kg i.p.): 252
- Percent T/C (Colon 38; 64.00 mg/kg i.p.): 26%
- solubility (physchem; 0.01 n hcl): ~3 mg/mL (≈ 10.6 mM)
- solubility (physchem; 0.1 hcl): ~30 mg/mL (≈ 106 mM)
- pH of reconstituted solution (physchem; lyophilized cake in 2 ml sterile water): 5.0-7.0
- Antitumor activity in words (LX-1 lung xenograft; listed as BIDA): No activity was seen
- Antitumor activity in words (LX-1 lung xenograft; listed as the compound): not active
- Table II evaluation (LX-1 lung xenograft; [7]): Activity not
